Laboratory results from patent publication US8765749B2, “1,6-disubstituted indole compounds as protein kinase inhibitors” (Korea Institute of Science and Technology, priority 2009, dated 2014).

What was measured:
[1] = tested on: A375P cells; experiment: Inhibition activity against proliferation of A375P melanoma cells (MTT assay); details: Homo sapiens, read-out: Inhibition activity against proliferation of A375P cells (GI50, μM)
[2] = tested on: SK-MEL28 cells; experiment: Inhibition activity against proliferation of SK-MEL28 melanoma cells (MTT assay); details: Homo sapiens, SK-MEL-28, read-out: Inhibition activity against proliferation of SK-MEL28 cells (GI50, μM)
[3] = target: T1, B-Raf (V600E) (Homo sapiens, UniProt P15056, V600E); experiment: Measurement of B-Raf-V600E kinase activity (MEK1 (K97R) phosphorylation, [γ-32P] ATP); assay type: biochemical; details: read-out: B-Raf kinase inhibition activity (% inhibition at 1 μM)
T1 construct: purchased Cell Signaling #7663
Description: (1) Activation of MEK1 (K97R) by B-Raf
Base reaction buffer (20 mM Hepes (pH 7.5), 10 mM MgCl2, 1 mM EGTA, 0.02% Brij35, 0.02 mg/mL BSA, 0.1 mM Na3VO, 2 mM DTT, 1% DMSO) was prepared. B-Raf (V600E) (Cell Signaling #7663) diluted to 30 nM was added at a final concentration of 10 nM, and MEK1 (K97R) (Upstate #14-737) diluted to 3 μM was added at a final concentration of 1 μM. The test compound was prepared at a concentration of 10 mM in dimethylsulfoxide (DMSO) and diluted to various concentrations. The final volume was adjusted to 20 μL and, after completely mixing, the mixture was allowed to react at room temperature for 30 minutes.
(2) Phosphorylation of MEK1 (K97R)
[γ-32P] ATP (100 μCi/container) diluted to 1/10 was added in 10 μL aliquots. After completely mixing, the mixture was allowed to react at room temperature for 2 hours. After placing P81 paper in a scintillation vial, spotting was performed using 30 μL of the reaction mixture. After washing 3 times with 0.75% phosphoric acid for 10 minutes and washing once with acetone for 10 minutes, 5 mL of scintillation cocktail was added to the scintillation vial holding the washed P81 paper. Signals were recorded using a scintillation counter.

[4] = tested on: A375 melanoma cells; details: read-out: proliferation of A375 melanoma cells IC50; cited from earlier work
[5] = cited from earlier work

T1 sequence (P15056 whole entry V600E): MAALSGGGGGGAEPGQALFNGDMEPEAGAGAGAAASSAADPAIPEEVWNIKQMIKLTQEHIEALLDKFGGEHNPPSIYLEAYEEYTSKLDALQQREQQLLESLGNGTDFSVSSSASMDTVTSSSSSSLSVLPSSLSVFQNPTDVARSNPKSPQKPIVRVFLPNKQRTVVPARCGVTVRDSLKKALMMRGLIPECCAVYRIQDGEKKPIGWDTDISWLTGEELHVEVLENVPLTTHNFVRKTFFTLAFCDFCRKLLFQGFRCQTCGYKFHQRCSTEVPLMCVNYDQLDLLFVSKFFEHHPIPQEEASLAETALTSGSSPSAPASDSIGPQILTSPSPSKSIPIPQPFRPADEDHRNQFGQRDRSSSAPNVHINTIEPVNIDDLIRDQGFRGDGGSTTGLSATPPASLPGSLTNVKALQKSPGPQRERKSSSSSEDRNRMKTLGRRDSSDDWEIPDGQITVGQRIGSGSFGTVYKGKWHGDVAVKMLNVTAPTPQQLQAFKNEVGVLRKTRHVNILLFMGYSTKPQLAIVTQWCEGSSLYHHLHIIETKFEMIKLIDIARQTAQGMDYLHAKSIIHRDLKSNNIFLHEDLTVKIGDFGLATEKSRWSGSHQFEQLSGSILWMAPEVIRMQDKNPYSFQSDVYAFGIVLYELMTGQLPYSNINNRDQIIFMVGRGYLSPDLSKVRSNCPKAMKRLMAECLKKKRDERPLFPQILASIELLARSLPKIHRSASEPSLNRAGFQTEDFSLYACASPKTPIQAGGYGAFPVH

Row | SMILES | GI50 [1] [µM] | GI50 [2] [µM] | inhibition at 1 µM [3] [%] | IC50 [4] [µM] | skin toxicity ([5]; 600 mg (twice a day)) | maximum allowed administration dose ([5]; clinical trial phase II, twice a day) [mg]
1 | COc1ccccc1NC(=O)Nc1ccc(C)c(-c2ccc3ccn(-c4cc(N)ncn4)c3c2)c1 [Example 21, 1-(3-(1-(6-aminopyrimidin-4-yl)-1H-indol-6-yl)-4-methylphenyl)-3-(2-methoxyphenyl)urea] | < 10 | < 10 | > 50 |  |  | 
2 | CNc1cc(-n2ccc3ccc(-c4cccc(NC(=O)Nc5ccccc5OC)c4)cc32)ncn1 [Example 22, 1-(2-methoxyphenyl)-3-(3-(1-(6-(methylamino)pyrimidin-4-yl)-1H-indol-6-yl)phenyl)urea] | < 10 | < 10 | > 50 |  |  | 
3 | COc1ccccc1NC(=O)Nc1cccc(-c2ccc3ccn(-c4cc(NC(=O)C5CC5)ncn4)c3c2)c1 [Example 26, N-(6-(6-(3-(3-(2-methoxyphenyl)ureido)phenyl)-1H-indol-1-yl)pyrimidin-4-yl)cyclopropanecarboxamide] | < 10 | < 10 | > 50 |  |  | 
4 | CCCS(=O)(=O)Nc1ccc(F)c(C(=O)c2c[nH]c3ncc(Cl)cc23)c1F [PLX4720] |  |  |  | 0.5 |  | 
5 | CNC(=O)c1cc(Oc2ccc(NC(=O)Nc3ccc(Cl)c(C(F)(F)F)c3)cc2)ccn1 [sorafenib, Sorafenib] |  |  |  |  | grade 3 skin toxicity | 400
